System: green peach aphids (Myzus persicae)
Assay: Pesticidal activity against green peach aphid on cabbage plants after soil treatment
Format: in vivo
Details: no surfactant added
Experimental: Each tested compositions was prepared by mixing a predetermined amount of the CLOSER® SC insecticide (a sulfoxaflor concentrate having a sulfoxaflor concentration of 240 g/L) with a predetermined amount of the selected nonionic surfactant in an aqueous medium. Two nonionic surfactants were used in the study: alkyl polyglycoside AGNIQUE® PG 8107 surfactant from Cognis Corporation (C8-C10 alkyl polyglycoside with degree of polymer of 1.7), and PEG-3 tridecyl alcohol ether MAKON® TD3 surfactant from Stepan Company.
For example, the “Sulfoxaflor at 100 ppm” composition contained about 0.043% weight of sulfoxaflor based on the total weight of the composition (i.e., 100 ppm of sulfoxaflor per one gram of final soil mixture). “Sulfoxaflor at 100 ppm+AGNIQUE®” composition contained about 0.043% weight of sulfoxaflor based on the total weight of the composition (i.e., 100 ppm of sulfoxaflor per one gram of final soil mixture), and about 0.225% weight of alkyl polyglycoside AGNIQUE® PG 8107 surfactant based on the total weight of the composition (i.e., 384 ppm per one gram of the final soil mixture; 1500 ppm per one gram of the total soil liquid).
The imidacloprid pesticide PROVADO® 1.6 from Bayer CropScience LP (North Carolina, USA) was used as a standard commercial pesticidal composition for aphid control. The imidacloprid pesticide PROVADO® 1.6 was tested at three different loadings: 100 ppm, 25 ppm, and 6.25 ppm per gram of final soil mixture.
In this EXAMPLE 7, water was tested as a control composition. Furthermore, an aqueous solution of alkyl polyglycoside AGNIQUE® PG 8107 surfactant and an aqueous solution of PEG-3 tridecyl alcohol ether MAKON® TD3 surfactant were tested. […]
Each of the 1-ounce clear cups was filled with about 30 grams of the inoculated Midwest field soil having the components as shown in TABLE 7. […] The soil moisture of the Midwest field soil was about 15% as measured by Mettler LJ16 Moisture Analyzer (15 minutes and 100° C.). […]

Structure (SMILES): C[C@@H](c1ccc(C(F)(F)F)nc1)[S@@](C)(=O)=NC#N (racemic) [Sulfoxaflor, [methyl(oxo) {1-[6-(trifluoromethyl)-3-pyridyl]ethyl}-λ^6-sulfanylidene]cyanamide]
- number of live GPA aphids on cabbage plant (DAT of 21 days, loading 6.25 ppm): about 38
- number of live GPA aphids on cabbage plant (DAT of 21 days, loading 100 ppm per gram of final soil mixture): no live GPA aphid
- number of live GPA aphids on cabbage plant (DAT of 28 days, sulfoxaflor 100 ppm): no live GPA aphid
